Test results from publication PMC9314723, “The aqueous stability and interactions of organoruthenium compounds with serum proteins, cell culture medium, and human serum” (Metallomics: Integrated Biometal Science, 2022).

How the values were obtained:
[1] = test system: HSA and Tf; parameters: method as in PMID 15907879; conditions: cited from earlier work
[2] = molecular target: T1, HSA (Homo sapiens, UniProt P02768); assay: CZE interaction study with HSA; type: binding
T1 construct: purchased Sigma-Aldrich A3782
Description: (§1) Stock solutions of HSA and Tf in BGE were prepared (400 μM). Studies were performed for 1 and 2 at complex (200 μM):protein ratios of 1:1, 10:1, and 20:1. The PCA complex 3 was investigated at complex (200 μM):protein ratios of 20:1 and 50:1 for HSA and at 10:1 and 20:1 for Tf. Samples were prepared just before the first measurement. BGE was used for dilution and [Co(acac)3] was added as the internal standard to all samples at a final concentration of 100 μM.
(§2) All measurements were performed in at least triplicate on a CE system G7100 (Agilent, Waldbronn, Germany) equipped with a long-life deuterium lamp (8 pin) with an radio-frequency identification (RFID) tag. A capillary (fused silica, 50 μm ID, Polymicro Technologies) with a total length of 50 cm and an effective length of 40 cm was installed for the separation with ultraviolet (UV) detection. The capillary zone electrophoresis (CZE)–UV data and peak areas presented were recorded at 200 nm, while the internal standard signal was recorded at 254 nm in the samples containing αMEM and human serum, as other neutral species were overlapping the signal at 200 nm. For HSA binding site studies, 210 nm was selected as the evaluation wavelength.
(§3) New capillaries were conditioned with HCl (0.1 M) and H2O followed by NaOH (1.0 M) and H2O for 10 min each followed by flushing with BGE [phosphate buffer (20 mM, pH 7.4)] for 20 min. The same procedure was carried out as daily conditioning. The capillary was flushed with BGE (3 min) before each run and was rinsed with HCl (0.1 M; 30 s), H2O (30 s), NaOH (1.0 M, 2 min), and H2O (2 min) after each separation. The sample tray and the capillary were kept at 25°C. Samples were injected hydrodynamically (50 mbar for 5 s) and the voltage applied was +20 kV for 5 min. The current reading was 23–24 μA.

[3] = CZE interaction study with cell culture medium; type: in vitro ADME; conditions: complex 200 μM, medium diluted 1:10, complex:albumin 133:1
Description: The interactions of complexes 1–3 with cell culture medium (αMEM with 5% FBS) were investigated. The αMEM was diluted 1:10 with BGE and the complex concentrations were kept at 200 μM and [Co(acac)3] at 100 μM. The dilution corresponded to a complex:albumin ratio of 133:1.
as §2
(§4) New capillaries were conditioned with HCl (0.1 M) and H2O followed by NaOH (1.0 M) and H2O for 10 min each followed by flushing with BGE [phosphate buffer (20 mM, pH 7.4)] for 20 min. The same procedure was carried out as daily conditioning. […] The current reading was 23–24 μA.

[4] = CZE interaction study with human serum; type: in vitro ADME; conditions: complex 200 μM, serum diluted 1:100, complex:albumin about 50:1
Description: The interactions of complexes 1–3 with human serum were investigated after diluting the serum 1:100 with BGE and the complex concentrations were kept at 200 μM and for [Co(acac)3] at 100 μM. The dilution corresponded to a complex:protein ratio of about 50:1 with regard to albumin content.
as §2, §4

[5] = molecular target: T2, Tf (Homo sapiens, UniProt P02787); assay: CZE interaction study with Tf; type: binding
T2 construct: purchased Sigma-Aldrich
Description: as §1, §2, §3

[6] = parameters: method as in PMID 31357065; conditions: cited from earlier work
[7] = CZE stability study in H2O and 20 mM phosphate buffer (pH 7.4); type: physicochemical; conditions: 200 μM; for Stability in water (peak areas of cationic species constant): complex cations of 2 and 3, or initial aquation products of 1 and 3, CZE over 24 h
Description: Stability studies of complexes 1–3 were carried out in both H2O and 20 mM phosphate buffer (pH 7.4). Stock solutions for the complexes were prepared in methanol (2 mM). The samples were diluted just before the first measurement to a final complex concentration of 200 μM. Tris(acetylacetonato)cobalt(III) [Co(acac)3] was added as an internal standard to all samples at a final concentration of 100 μM. The stability was studied for 24 h by monitoring changes in the peak areas over time.
as §2, §3

[8] = test system: human cancer cells; conditions: cited from earlier work
[9] = test system: plectin; parameters: method as in earlier work; conditions: cited from earlier work
[10] = molecular target: T2, Tf; assay: FT-ICR-MS adduct formation with Tf; type: binding; conditions: complex:Tf 5:1 in water
Description: The adduct formation between complex 1 and Tf was further studied using a Bruker Solarix XR 7 T FT–ICR–MS. A mixture of 1 and Tf in ratio 5:1 in H2O (18 MΩ, Millipore) was incubated for 24 h. A sample was collected after 0 and 24 h, and the samples were frozen until analysis. The samples were diluted 1:100 with 0.1% formic acid in H2O (18 MΩ, Millipore) prior to analysis, producing a final concentration of 2 μM for complex 1 and 0.4 μM for Tf. A separate standard of Tf at 0.4 μM was also prepared and analyzed.

[11] = Aqueous solubility; type: physicochemical
[12] = molecular target: T3, HSA binding site II (Homo sapiens, UniProt P02768); assay: Competitive displacement study, HSA binding site II (Ds marker), CZE; conditions: for % Ds bound: Ds:HSA (100 μM) 2:1, n = 3
T3 construct: purchased Sigma-Aldrich A1653
Description: The affinity of complex 1 for binding sites I and II on HSA was investigated with Wf as the site marker for binding site I and Ds for site II by tracking the peak area for unbound Wf and Ds, respectively. Stock solutions of Wf, Ds, and HSA were prepared in H2O at concentrations of 800, 800, and 200 μM, respectively. Wf or Ds were incubated with HSA (100 μM) at a ratio of 2:1 for at least 1 h at room temperature before complex 1 was added at final concentrations of 200, 400, or 800 μM. The final concentration of methanol was 10% in all samples. Calibration curves for Wf or Ds in the range of 50–300 μM were determined before the start of each displacement study, to allow for accurate quantification of the amounts of Ds or Wf displaced by complex 1.
as §2
(§5) For the binding site studies with HSA, a modified version of a CE method was applied.[21] Before each run, the capillary was flushed with BGE (2 min), then +28 kV voltage was applied for 30 s followed by 1 min of flushing with BGE and the capillary was rinsed with HCl (0.1 M; 2 min), H2O (2 min), NaOH (1.0 M, 2 min), and H2O (2 min) after each separation. The sample tray and the capillary were kept at 25°C. Samples were injected hydrodynamically (30 mbar for 5 s) and the voltage applied was +28 kV for 5 min. The current reading was 34 μA.

[13] = molecular target: T4, HSA binding site I (Homo sapiens, UniProt P02768); assay: Competitive displacement study, HSA binding site I (Wf marker), CZE; conditions: for % Wf bound: Wf:HSA (100 μM) 2:1, n = 3
T4 construct: purchased Sigma-Aldrich A1653
Description: The final concentration of methanol was 10% in all samples.
as §2, §5

T2 sequence (P02787 20-698): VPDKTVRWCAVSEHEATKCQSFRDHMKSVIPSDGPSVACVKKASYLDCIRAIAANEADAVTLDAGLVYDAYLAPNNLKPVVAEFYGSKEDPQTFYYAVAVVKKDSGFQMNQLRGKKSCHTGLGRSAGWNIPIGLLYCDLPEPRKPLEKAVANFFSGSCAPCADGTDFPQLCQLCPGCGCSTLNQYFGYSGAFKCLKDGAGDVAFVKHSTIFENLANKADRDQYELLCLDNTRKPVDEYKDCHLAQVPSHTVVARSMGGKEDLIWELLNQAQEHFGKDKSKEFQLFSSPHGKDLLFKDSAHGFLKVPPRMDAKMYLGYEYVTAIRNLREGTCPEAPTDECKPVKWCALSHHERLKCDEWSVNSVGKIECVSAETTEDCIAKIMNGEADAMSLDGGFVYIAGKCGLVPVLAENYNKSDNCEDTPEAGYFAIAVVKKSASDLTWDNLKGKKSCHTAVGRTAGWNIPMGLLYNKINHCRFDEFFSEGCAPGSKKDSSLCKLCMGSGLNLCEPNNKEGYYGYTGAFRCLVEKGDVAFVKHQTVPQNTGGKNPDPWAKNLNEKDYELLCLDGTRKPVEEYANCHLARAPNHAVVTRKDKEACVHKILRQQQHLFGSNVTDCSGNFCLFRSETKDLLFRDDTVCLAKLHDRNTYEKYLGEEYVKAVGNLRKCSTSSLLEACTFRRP
T4 sequence (P02768 25-609): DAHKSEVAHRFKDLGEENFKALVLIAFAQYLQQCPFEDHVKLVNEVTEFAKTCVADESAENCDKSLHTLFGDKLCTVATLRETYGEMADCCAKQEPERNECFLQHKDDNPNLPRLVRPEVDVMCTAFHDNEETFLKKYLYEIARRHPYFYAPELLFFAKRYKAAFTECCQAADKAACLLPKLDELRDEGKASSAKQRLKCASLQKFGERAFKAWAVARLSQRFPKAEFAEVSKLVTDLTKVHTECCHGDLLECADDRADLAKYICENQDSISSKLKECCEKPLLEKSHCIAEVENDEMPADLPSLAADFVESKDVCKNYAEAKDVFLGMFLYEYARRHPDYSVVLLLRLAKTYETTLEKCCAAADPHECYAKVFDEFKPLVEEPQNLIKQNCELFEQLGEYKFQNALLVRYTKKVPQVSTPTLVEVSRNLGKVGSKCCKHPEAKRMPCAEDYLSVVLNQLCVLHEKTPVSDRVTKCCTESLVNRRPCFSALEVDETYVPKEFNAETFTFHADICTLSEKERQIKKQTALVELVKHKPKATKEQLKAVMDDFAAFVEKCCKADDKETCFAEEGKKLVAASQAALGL
T1 sequence (P02768 25-609): as above
T3 sequence (P02768 25-609): as above

[Cl-].[Cl-].[Cl-].[Cl-].[Ru+3].c1ccc2[nH][nH+]cc2c1.c1ccc2[nH]ncc2c1.c1ccc2[nH]ncc2c1 [KP1019, Indazolium Trans-[Tetrachlorobis(1H-Indazole)Ruthenate(III)]]
Relative rate of binding to serum proteins [1]: bind quicker to Tf than HSA

C1N2CN3CN1CP(C2)C3.Cc1ccc(C(C)C)cc1.O=S(=O)([O-])C(F)(F)F.[O-]c1cccc2cccnc12.[Ru+2] [Complex 2, [Ru^II(cym)(8-HQ)(PTA)](SO3CF3)]
Interaction with HSA ([2]; complex (200 μM):HSA 1:1, 10:1, 20:1, over 1 d): does not interact with either protein
Interaction with αMEM spiked with 5% FBS [3]: no interactions were observed
Interaction with human serum [4]: no interactions were observed
Interaction with Tf ([5]; complex (200 μM):Tf 1:1, 10:1, 20:1, over 1 d): does not interact with either protein
Halido/aqua ligand exchange in aqueous environment (1H NMR) [6]: inert
Stability in water (peak areas of cationic species constant) [7]: at least 24 h

Cc1ccc(C(C)C)cc1.Fc1ccc(NC(=S)c2ccccn2)cc1.[Cl-].[Cl-].[Ru+2] [Complex 3, [Ru^II(cym)(PCA)Cl]Cl]
Observation on incubation with HSA ([2]; complex (200 μM):HSA 20:1 and 50:1, data not analysable): precipitation
Interaction with αMEM spiked with 5% FBS [3]: precipitation was observed
IC50 values (antiproliferative properties) [8]: low micromolar range
Interaction with human serum [4]: precipitation was observed
Decrease in Tf peak area ([5]; complex:Tf 10:1): 62%
Decrease in Tf peak area ([5]; complex:Tf 20:1): 82%
Decrease in peak area of complex 3 ([5]; complex:Tf 20:1): 37%
Stability in water (peak areas of cationic species constant) [7]: at least 24 h
Protein target [9]: specifically target the scaffold protein and cytolinker plectin

Cc1ccc(C(C)C)cc1.[Cl-].[O-]c1cccc2cccnc12.[Ru+2] [Complex 1, [Ru^II(cym)(8-HQ)Cl]]
Binding to HSA, complex peak ([2]; complex (200 μM):HSA 1:1): complex peak was not detectable in the first run
Binding to HSA ([2]; complex (200 μM):HSA 10:1, over 2 h): majority of complex 1 was found attached to either protein
Fraction of complex remaining unbound ([2]; complex (200 μM):HSA 20:1, after 2 h): about a quarter to a third
IC50 values (antiproliferative properties) [8]: low micromolar range
Adducts formed with Tf ([10]; after 24 h): [Tf + 3 Ru(cym)(8-HQ)] was dominant
Adducts formed with Tf ([10]; immediately after mixing (0 h)): adducts with one, two, and three Ru(cym)(8-HQ) moieties attached to the protein
Aqueous solubility [11]: limited aqueous solubility
Binding to Tf, complex peak ([5]; complex (200 μM):Tf 1:1): complex peak was not detectable in the first run
Binding to Tf ([5]; complex (200 μM):Tf 10:1, over 2 h): majority of complex 1 was found attached to either protein
Fraction of complex remaining unbound ([5]; complex (200 μM):Tf 20:1, after 2 h): about a quarter to a third
% Ds bound ([12]; 200 μM complex 1, 0 h): 44 ± 6%
% Ds bound ([12]; 200 μM complex 1, 24 h): 50 ± 7%
% Ds bound ([12]; 200 μM complex 1, 48 h): 45 ± 7%
% Ds bound ([12]; 400 μM complex 1, 0 h): 35 ± 7%
% Ds bound ([12]; 400 μM complex 1, 24 h): 19 ± 11%
% Ds bound ([12]; 400 μM complex 1, 48 h): 33 ± 7%
% Ds bound ([12]; 800 μM complex 1, 0 h): Fully displaced
% Ds bound ([12]; 800 μM complex 1, 24 h): Fully displaced
% Ds bound ([12]; 800 μM complex 1, 48 h): Fully displaced
Binding to site II on HSA (displacement of Ds) ([12]; at higher molar ratios): binds to both sites I and II on HSA
Halido/aqua ligand exchange in aqueous environment (1H NMR) [6]: undergo halido/aqua ligand exchange quickly
Speciation on dilution with water or BGE ([7]; migration relative to EOF marker [Co(acac)3]): underwent ligand exchange to form a cationic species
Stability in water (peak areas of cationic species constant) [7]: at least 24 h
% Wf bound ([13]; 200 μM complex 1, 0 h): 58 ± 4%
% Wf bound ([13]; 200 μM complex 1, 24 h): 59 ± 4%
% Wf bound ([13]; 200 μM complex 1, 48 h): 51 ± 4%
% Wf bound ([13]; 400 μM complex 1, 0 h): 26 ± 9%
% Wf bound ([13]; 400 μM complex 1, 24 h): 23 ± 5%
% Wf bound ([13]; 400 μM complex 1, 48 h): 33 ± 8%
% Wf bound ([13]; 800 μM complex 1, 0 h): Fully displaced
% Wf bound ([13]; 800 μM complex 1, 24 h): Fully displaced
% Wf bound ([13]; 800 μM complex 1, 48 h): Fully displaced
Binding to site I on HSA (displacement of Wf) ([13]; at higher molar ratios): binds to both sites I and II on HSA
